Measurements as given in patent US20250129092A1, “COMPOUNDS USEFUL IN MODULATION OF AHR SIGNALLING” (JAGUAHR THERAPEUTICS PTE LTD, priority 2021, published 2025).

Experiments:
AhR [1] = target: T1, AhR (Homo sapiens, UniProt P35869); assay: AhR antagonism in U937 cells (Promega P450-Glo assay); type: cell-based; parameters: endogenous in cells; host or cells: U937 cells; details: CYP1A1 activity readout (Luciferin-CEE), head names VAF347, average, read-out: U937 Antagonist pIC50-VAF347: av. pIC50 (converted)
T1 sequence (P35869 11-848): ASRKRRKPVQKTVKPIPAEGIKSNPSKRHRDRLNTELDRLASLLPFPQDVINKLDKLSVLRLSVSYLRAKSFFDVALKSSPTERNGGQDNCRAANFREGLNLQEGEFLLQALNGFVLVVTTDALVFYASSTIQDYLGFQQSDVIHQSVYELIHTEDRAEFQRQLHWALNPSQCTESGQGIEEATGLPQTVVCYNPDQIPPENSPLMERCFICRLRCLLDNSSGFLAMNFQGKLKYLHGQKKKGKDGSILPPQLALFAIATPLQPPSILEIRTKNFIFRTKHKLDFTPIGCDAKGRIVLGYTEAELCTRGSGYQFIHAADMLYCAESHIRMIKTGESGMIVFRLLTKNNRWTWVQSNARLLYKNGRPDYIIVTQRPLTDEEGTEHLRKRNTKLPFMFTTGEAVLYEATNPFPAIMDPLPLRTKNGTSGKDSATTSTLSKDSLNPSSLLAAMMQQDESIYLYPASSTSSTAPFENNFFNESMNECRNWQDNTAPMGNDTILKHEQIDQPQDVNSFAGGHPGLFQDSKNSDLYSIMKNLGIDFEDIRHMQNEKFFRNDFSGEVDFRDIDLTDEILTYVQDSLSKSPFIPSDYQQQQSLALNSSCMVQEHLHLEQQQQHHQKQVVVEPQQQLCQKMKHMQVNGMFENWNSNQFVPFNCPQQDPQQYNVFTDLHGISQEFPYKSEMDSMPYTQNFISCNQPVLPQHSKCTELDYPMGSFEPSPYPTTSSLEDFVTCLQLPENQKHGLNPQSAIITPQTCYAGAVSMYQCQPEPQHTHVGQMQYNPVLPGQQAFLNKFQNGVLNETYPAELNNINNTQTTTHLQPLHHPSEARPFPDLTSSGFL
Method: In Vitro Assay 1: AhR Antagonism in U937 Cells (Promega P450-Glo™ Assay)
AhR antagonism was assessed in LJ937 cells (myeloid lineage cell line derived from a human histiocytic lymphoma). Ligand binds the AhR in the cytoplasm, and the AhR-ligand complex translocates to the nucleus and forms a heterodimer with AhR nuclear translocator (Arnt). This complex binds the xenobiotic response element (XRE) in the 5′ upstream region of the CYP1A1 promoter, enhancing CYP1A1 expression. CYP1A1 activity is subsequently determined by assessing the conversion of Luciferin-CEE to luciferin, which in turn reacts with luciferase to produce light. The amount of light produced is directly proportional to cytochrome P450 activity. U937 cells in Ultraculture serum free media (Lonza) were plated at 100,000 cells per well in a round bottom 96 well tissue culture plate. […] The plates were then placed in an incubator at 37° C., ≥85% humidity, 5% CO2 for 24 hrs. After aspiration of the supernatant the CYP1A1 substrate Luciferin-CEE ([Final] 83 μM) was added and incubated for 3 hrs before the reaction was stopped by adding luciferin detection reagent and luminescence was read after 20 minutes.

AhR [2] = target: T1, AhR; assay: AhR antagonism in human PBMCs - inhibition of IL-22 release; type: cell-based; parameters: endogenous in cells; details: human PBMCs activated with CD3/CD28 agonist mixture, 72 hrs, IL-22 ELISA; average; read-out: hPBMC Inhibition of CD3/CD28 induced IL-22 release: av. pIC50 (converted)
Excerpt: In Vitro Assay 3: AhR Antagonism in Human Peripheral Blood Mononuclear Cells (PBMCs)-Inhibition of Interleukin-22 (IL-22) Release.
PBMCs were isolated from human peripheral blood using Lymphoprep™ and diluted to 1×10^6 cells per ml in RPMI media containing […] foetal bovine serum, 1% penicillin-streptomycin and 1% non essential amino acids. PBMCs were subsequently activated with 1p1 per 100,000 cells of a CD3/CD28 agonist mixture (human T Cell TransAct™ (Miltenyi Biotec)) and then plated at 100,000 cells per well in a round bottom 96 well tissue culture plate. One hour after stimulation seven concentrations of each test compound or vehicle (final [DMSO] 0.2%) were added. The plates were then placed in an incubator at 37° C., ≥85% humidity, 5% […] for 72 hrs before the media was removed and stored at −20° C. until cytokine analysis. IL-22 was measured using human IL-22 DuoSet ELISA (R&D systems) according to the manufacturer's instructions.

IC50 (AhR [1])	IC50 (AhR [2])	Structure (SMILES)
123 nM	> 2000 nM	FC(F)Oc1ncccc1-c1nc2c(c(NCCc3c[nH]c4ccccc34)n1)OCCN2 [Example 22, 2-[2-(difluoromethoxy)-3-pyridyl]-N-[2-(1H-indol-3-yl)ethyl]-7,8-dihydro-6H-pyrimido[5,4-b][1,4]oxazin-4-amine]
14.1 nM	13.5 nM	Cc1ncc(-c2nc(NCCc3c[nH]c4ccccc34)c3c(n2)N(C2COC2)CCO3)s1 [Example 33, N-[2-(1H-indol-3-yl)ethyl]-2-(2-methylthiazol-5-yl)-8-(oxetan-3-yl)-6,7-dihydropyrimido[5,4-b][1,4]oxazin-4-amine]
81.3 nM	759 nM	COC[C@@H]1COc2c(nc(-c3cnc(C)s3)nc2N[C@@H]2CCc3[nH]c4ccccc4c3C2)N1 [Example 53, (7R)-7-(methoxymethyl)-2-(2-methylthiazol-5-yl)-N-[(3R)-2,3,4,9-tetrahydro-1H-carbazol-3-yl]-7,8-dihydro-6H-pyrimido[5,4-b][1,4]oxazin-4-amine]
25.1 nM	56.2 nM	Fc1ccc(-c2nc3c(c(NCCc4c[nH]c5ccccc45)n2)OCCN3)cc1 [Example 2, 2-(4-fluorophenyl)-N-[2-(1H-indol-3-yl)ethyl]-7,8-dihydro-6H-pyrimido[5,4-b][1,4]oxazin-4-amine]
1.86 nM	0.955 nM	CC1COc2c(NCCc3c[nH]c4ccccc34)nc(-c3cncc(F)c3)nc2N1 (stereo not drawn) [Example 5, 2-(5-fluoro-3-pyridyl)-N-[2-(1H-indol-3-yl)ethyl]-7-methyl-7,8-dihydro-6H-pyrimido[5,4-b][1,4]oxazin-4-amine]
3.8 nM	1.66 nM	O=c1[nH]cccc1-c1nc2c(c(NCCc3c[nH]c4ccccc34)n1)OCCN2 [Example 17, 3-[4-[2-(1H-indol-3-yl)ethylamino]-7,8-dihydro-6H-pyrimido[5,4-b][1,4]oxazin-2-yl]-1H-pyridin-2-one]

The next lines start with the compound.

Structure (SMILES)	IC50 (AhR [1])	IC50 (AhR [2])
C[C@@H]1COc2c(NCCc3c[nH]c4ccccc34)nc(-c3cncc(F)c3)nc2N1 [Example 9, (7R)-2-(5-fluoro-3-pyridyl)-N-[2-(1H-indol-3-yl)ethyl]-7-methyl-7,8-dihydro-6H-pyrimido[5,4-b][1,4]oxazin-4-amine]	0.513 nM	0.661 nM
COC[C@@H]1COc2c(NCCc3c[nH]c4ccccc34)nc(-c3cccc(F)c3)nc2N1 [Example 57, (7R)-2-(3-fluorophenyl)-N-[2-(1H-indol-3-yl)ethyl]-7-(methoxymethyl)-7,8-dihydro-6H-pyrimido[5,4-b][1,4]oxazin-4-amine]	3.09 nM	2 nM
Fc1cccc(-c2nc3c(c(NCCc4c[nH]c5ccccc45)n2)OCCN3)c1 [Example 50, 2-(3-fluorophenyl)-N-[2-(1H-indol-3-yl)ethyl]-7,8-dihydro-6H-pyrimido[5,4-b][1,4]oxazin-4-amine]	5.5 nM	22.4 nM
Cc1ncsc1-c1nc2c(c(NCCc3c[nH]c4ccccc34)n1)OCCN2 [Example 10, N-[2-(1H-indol-3-yl)ethyl]-2-(4-methylthiazol-5-yl)-7,8-dihydro-6H-pyrimido[5,4-b][1,4]oxazin-4-amine]	4.57 nM	8.13 nM
COC[C@@H]1COc2c(N[C@@H]3CCc4[nH]c5ccccc5c4C3)nc(-c3cnc(C)s3)nc2N1CCN(C)C [Example 35, (7R)-8-[2-(dimethylamino)ethyl]-7-(methoxymethyl)-2-(2-methylthiazol-5-yl)-N-[(3R)-2,3,4,9-tetrahydro-1H-carbazol-3-yl]-6,7-dihydropyrimido[5,4-b][1,4]oxazin-4-amine]	> 1000 nM	977 nM
Cc1ncc(-c2nc3c(c(N[C@@H]4Cc5cccc6[nH]cc(c56)C4)n2)OCCN3)s1 (single isomer, unassigned) [Example 61]	339 nM	1260 nM
